In patent US20260042764A1, “COMPOSITIONS AND METHODS FOR INHIBITION OF KRAS” (TheRas, Inc., priority 2022, published 2026):

target: T1, Avi-KRAS WT (2-169) GTP/RAF1 RBD-3xFLAG (51-131) (Homo sapiens, UniProt P01116); assay: Raf1-KRAS WT-GTP disruption HTRF assay (Biological Example 3); type: binding; conditions: KRAS WT, GTP-loaded
T1 construct: Avi-KRAS WT (2-169)
How it was run: (§1)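 HTRF PPI read-out (ex 320 nm, em 615 nm) after 1 h RT incubation with shaking; data as % activity vs DMSO (100%), IC50 from curve fit. Complex 50 nM, RBD reagent 75 nM; compound 30-0.005 μM, 3-fold.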

T1 sequence (P01116 2-169 isoform P01116-2): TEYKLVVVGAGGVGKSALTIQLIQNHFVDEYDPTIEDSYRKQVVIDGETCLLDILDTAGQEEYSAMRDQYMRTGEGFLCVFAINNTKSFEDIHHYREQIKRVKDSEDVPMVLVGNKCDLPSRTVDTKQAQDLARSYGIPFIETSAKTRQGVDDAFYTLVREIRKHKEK

Compared with `N#Cc1c(N)sc2c(F)ccc(-c3c(C(F)(F)F)cc4c(N5Cc6ccncc6C5)nc(OC[C@@]56CCCN5C[C@H](F)C6)nc4c3F)c12` [Compound 946], `CCN(c1nc(OC[C@@]23CCCN2C[C@H](F)C3)nc2c(F)c(-c3ccc(F)c4sc(N)c(C#N)c34)c(C(F)(F)F)cc12)[C@H]1CCN(c2ccccn2)C1` [Compound 948] is higher in IC50: 1000 to 10000 nM for the first, over 10000 nM for the second. The first is the more potent here.

First: CCN(c1nc(OC[C@@]23CCCN2C[C@H](F)C3)nc2c(F)c(-c3ccc(F)c4sc(N)c(C#N)c34)c(C(F)(F)F)cc12)C1CCN(C(=O)OC)C1 (stereo partly drawn) [Compound 947]
Second: CCN(c1nc(OCC23CCCN2CC(F)C3)nc2c(F)c(-c3ccc(F)c4sc(N)c(C#N)c34)c(C(F)(F)F)cc12)C1CCN(C(=O)c2ncns2)C1 (stereo not drawn) [Compound 949]
The IC50 of the first is higher: over 10000 nM for the first, 100 to 1000 nM for the second. The second is the more potent here.

target: T2, Avi-KRAS G12C (2-169) GTP/RAF1 RBD-3xFLAG (51-131) (Homo sapiens, UniProt P01116, G12C); assay: Raf1-KRAS G12C-GTP disruption HTRF assay (Biological Example 3); type: binding; conditions: KRAS G12C, GTP-loaded
T2 construct: Avi-KRAS G12C (2-169)
How it was run: as §1

T2 sequence (P01116 2-169 isoform P01116-2 G12C): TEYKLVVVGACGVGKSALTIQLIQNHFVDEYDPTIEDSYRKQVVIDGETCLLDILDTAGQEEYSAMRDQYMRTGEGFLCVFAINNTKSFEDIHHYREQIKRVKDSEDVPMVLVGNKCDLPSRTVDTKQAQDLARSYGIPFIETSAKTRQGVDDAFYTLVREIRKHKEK

`N#Cc1c(N)sc2c(F)ccc(-c3c(C(F)(F)F)cc4c(N5Cc6ccncc6C5)nc(OC[C@@]56CCCN5C[C@H](F)C6)nc4c3F)c12` [Compound 946] and `CCN(c1nc(OC[C@@]23CCCN2C[C@H](F)C3)nc2c(F)c(-c3ccc(F)c4sc(N)c(C#N)c34)c(C(F)(F)F)cc12)[C@H]1CCN(c2ccccn2)C1` [Compound 948] fall in the same range of IC50: 1000 to 10000 nM for the first, 1000 to 10000 nM for the second.

First: CCN(c1nc(OC[C@@]23CCCN2C[C@H](F)C3)nc2c(F)c(-c3ccc(F)c4sc(N)c(C#N)c34)c(C(F)(F)F)cc12)C1CCN(C(=O)OC)C1 (stereo partly drawn) [Compound 947]
Second: CCN(c1nc(OCC23CCCN2CC(F)C3)nc2c(F)c(-c3ccc(F)c4sc(N)c(C#N)c34)c(C(F)(F)F)cc12)C1CCN(C(=O)c2ncns2)C1 (stereo not drawn) [Compound 949]
The IC50 of the first is higher: 1000 to 10000 nM for the first, 100 to 1000 nM for the second. The second is the more potent here.

target: T3, Avi-KRAS G12D (2-169) GTP/RAF1 RBD-3xFLAG (51-131) (Homo sapiens, UniProt P01116, G12D); assay: Raf1-KRAS G12D-GTP disruption HTRF assay (Biological Example 3); type: binding; conditions: KRAS G12D, GTP-loaded
T3 construct: Avi-KRAS G12D (2-169)
How it was run: as §1

T3 sequence (P01116 2-169 isoform P01116-2 G12D): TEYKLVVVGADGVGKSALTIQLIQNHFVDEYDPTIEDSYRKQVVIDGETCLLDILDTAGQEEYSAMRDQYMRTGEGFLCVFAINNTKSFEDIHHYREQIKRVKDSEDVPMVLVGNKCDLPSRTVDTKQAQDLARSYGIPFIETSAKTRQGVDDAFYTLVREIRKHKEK

`N#Cc1c(N)sc2c(F)ccc(-c3c(C(F)(F)F)cc4c(N5Cc6ccncc6C5)nc(OC[C@@]56CCCN5C[C@H](F)C6)nc4c3F)c12` [Compound 946] and `CCN(c1nc(OC[C@@]23CCCN2C[C@H](F)C3)nc2c(F)c(-c3ccc(F)c4sc(N)c(C#N)c34)c(C(F)(F)F)cc12)[C@H]1CCN(c2ccccn2)C1` [Compound 948] fall in the same range of IC50: 1000 to 10000 nM for the first, 1000 to 10000 nM for the second.

First: CCN(c1nc(OC[C@@]23CCCN2C[C@H](F)C3)nc2c(F)c(-c3ccc(F)c4sc(N)c(C#N)c34)c(C(F)(F)F)cc12)C1CCN(C(=O)OC)C1 (stereo partly drawn) [Compound 947]
Second: CCN(c1nc(OCC23CCCN2CC(F)C3)nc2c(F)c(-c3ccc(F)c4sc(N)c(C#N)c34)c(C(F)(F)F)cc12)C1CCN(C(=O)c2ncns2)C1 (stereo not drawn) [Compound 949]
The IC50 of the first is higher: 1000 to 10000 nM for the first, 100 to 1000 nM for the second.

target: T4, Avi-KRAS G12V (2-169) GTP/RAF1 RBD-3xFLAG (51-131) (Homo sapiens, UniProt P01116, G12V); assay: Raf1-KRAS G12V-GTP disruption HTRF assay (Biological Example 3); type: binding; conditions: KRAS G12V, GTP-loaded
T4 construct: Avi-KRAS G12V (2-169)
How it was run: as §1

T4 sequence (P01116 2-169 isoform P01116-2 G12V): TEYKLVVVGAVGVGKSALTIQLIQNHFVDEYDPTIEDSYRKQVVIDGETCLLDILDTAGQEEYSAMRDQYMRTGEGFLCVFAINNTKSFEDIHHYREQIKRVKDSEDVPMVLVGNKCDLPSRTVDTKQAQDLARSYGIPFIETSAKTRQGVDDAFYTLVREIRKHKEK

First: N#Cc1c(N)sc2c(F)ccc(-c3c(C(F)(F)F)cc4c(N5Cc6ccncc6C5)nc(OC[C@@]56CCCN5C[C@H](F)C6)nc4c3F)c12 [Compound 946]
Second: CCN(c1nc(OC[C@@]23CCCN2C[C@H](F)C3)nc2c(F)c(-c3ccc(F)c4sc(N)c(C#N)c34)c(C(F)(F)F)cc12)[C@H]1CCN(c2ccccn2)C1 [Compound 948]
The IC50 of the first is lower: 1000 to 10000 nM for the first, over 10000 nM for the second.

First: CCN(c1nc(OC[C@@]23CCCN2C[C@H](F)C3)nc2c(F)c(-c3ccc(F)c4sc(N)c(C#N)c34)c(C(F)(F)F)cc12)C1CCN(C(=O)OC)C1 (stereo partly drawn) [Compound 947]
Second: CCN(c1nc(OCC23CCCN2CC(F)C3)nc2c(F)c(-c3ccc(F)c4sc(N)c(C#N)c34)c(C(F)(F)F)cc12)C1CCN(C(=O)c2ncns2)C1 (stereo not drawn) [Compound 949]
The IC50 of the first is higher: over 10000 nM for the first, 100 to 1000 nM for the second. The second is the more potent here.

tested on: SW620 cells (KRAS G12V); assay: Cell-based pERK HTRF assay in SW620 cell (Biological Example 4); conditions: Homo sapiens, SW-620, SW620 (KRAS G12V) cells
How it was run: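 SW620 cells were treated for 4 h with compound in a 9-point half-log series from 1 μM top (0.25% DMSO), then lysed. Phospho-ERK was detected by HTRF with d2 and Eu cryptate antibodies after 4–24 h at room temperature, read at 615 nm emission.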

Compared with `N#Cc1c(N)sc2c(F)ccc(-c3c(C(F)(F)F)cc4c(N5Cc6ccncc6C5)nc(OC[C@@]56CCCN5C[C@H](F)C6)nc4c3F)c12` [Compound 946], `CCN(c1nc(OC[C@@]23CCCN2C[C@H](F)C3)nc2c(F)c(-c3ccc(F)c4sc(N)c(C#N)c34)c(C(F)(F)F)cc12)[C@H]1CCN(c2ccccn2)C1` [Compound 948] is lower in IC50: 100 to 1000 nM for the first, under 100 nM for the second. The second is the more potent here.

In the case of `CCN(c1nc(OCC23CCCN2CC(F)C3)nc2c(F)c(-c3ccc(F)c4sc(N)c(C#N)c34)c(C(F)(F)F)cc12)C1CCN(C(=O)c2ncns2)C1` (stereo not drawn) [Compound 949], the IC50 is reported as under 100 nM.

same assay, conditions: SW620 (KRAS G12V) cells

Molecule `CCN(c1nc(OC[C@@]23CCCN2C[C@H](F)C3)nc2c(F)c(-c3ccc(F)c4sc(N)c(C#N)c34)c(C(F)(F)F)cc12)C1CCN(C(=O)OC)C1` (stereo partly drawn) [Compound 947] has an IC50 of 100 to 1000 nM.

tested on: GP2d cells (KRAS G12D); assay: Cell-based pERK HTRF assay in GP2d cell (Biological Example 2); conditions: GP2d (KRAS G12D) cells
How it was run: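 Phospho-ERK is measured by HTRF following a 60 min compound exposure at 0.25% DMSO, with a 9-point half-log curve topping at 1 μM or 100 nM.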

`CCN(c1nc(OC[C@@]23CCCN2C[C@H](F)C3)nc2c(F)c(-c3ccc(F)c4sc(N)c(C#N)c34)c(C(F)(F)F)cc12)C1CCN(C(=O)OC)C1` (stereo partly drawn) [Compound 947] was tested, and the IC50 was under 100 nM.

same assay, conditions: GP2d, GP2d (KRAS G12D) cells

`N#Cc1c(N)sc2c(F)ccc(-c3c(C(F)(F)F)cc4c(N5Cc6ccncc6C5)nc(OC[C@@]56CCCN5C[C@H](F)C6)nc4c3F)c12` [Compound 946] and `CCN(c1nc(OC[C@@]23CCCN2C[C@H](F)C3)nc2c(F)c(-c3ccc(F)c4sc(N)c(C#N)c34)c(C(F)(F)F)cc12)[C@H]1CCN(c2ccccn2)C1` [Compound 948] cannot be ordered by IC50: under 100 nM for the first, under 100 nM for the second.

In the case of `CCN(c1nc(OCC23CCCN2CC(F)C3)nc2c(F)c(-c3ccc(F)c4sc(N)c(C#N)c34)c(C(F)(F)F)cc12)C1CCN(C(=O)c2ncns2)C1` (stereo not drawn) [Compound 949], the IC50 is reported as under 100 nM.
